Laboratory results reported in patent publication US20090048258A1, “Amide Compound” (priority 2005, published 2009).

Biological target: T1, Human DGAT1 (Homo sapiens, UniProt O75907)
T1 construct: my translation of the primer: M-G-DYKDDDD-GDRGSSRRR) (N); made in house; host or cells: Sf9 insect cells (recombinant baculovirus BAC-DGAT1, pFASTBAC1); microsome fraction
T1 sequence (O75907 1-488): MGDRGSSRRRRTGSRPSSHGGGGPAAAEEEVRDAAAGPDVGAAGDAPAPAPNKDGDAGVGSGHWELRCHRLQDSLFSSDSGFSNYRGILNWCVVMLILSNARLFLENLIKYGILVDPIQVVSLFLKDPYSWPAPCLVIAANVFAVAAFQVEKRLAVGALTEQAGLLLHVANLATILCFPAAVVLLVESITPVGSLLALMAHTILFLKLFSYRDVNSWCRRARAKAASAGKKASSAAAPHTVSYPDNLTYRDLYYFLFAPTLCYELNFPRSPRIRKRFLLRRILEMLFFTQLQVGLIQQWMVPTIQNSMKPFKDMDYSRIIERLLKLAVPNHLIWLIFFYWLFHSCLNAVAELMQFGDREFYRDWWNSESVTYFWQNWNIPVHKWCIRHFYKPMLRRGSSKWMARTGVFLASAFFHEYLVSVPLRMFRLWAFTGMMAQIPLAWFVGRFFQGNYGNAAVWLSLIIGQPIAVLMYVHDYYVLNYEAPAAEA
Assay: DGAT inhibitory activity: [14C]-triglyceride synthesis by DGAT1 high expression Sf9 microsome
Assay type: biochemical
Settings: Table 1, 25 μM dioleoylglycerol, 25 μM [14C]-Oleoyl-CoA, 32° C., 15 min, read-out: DGAT inhibitory activity (according to IC50)
Procedure, shortened: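 DGAT1 was overexpressed from recombinant baculovirus in Sf9 cells, and microsomes from these cells were the enzyme source. Reactions ran in 100 mM Tris-HCl pH 7.5, 250 mM sucrose, 150 mM MgCl2 and 0.01% BSA. [14C]-triglyceride was extracted into chloroform, separated by TLC and quantified by imaging plate, with inhibition calculated against control and blank (no microsome) counts.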

SMILES	IC50
CCOc1ccc(C(=O)CCC(=O)Nc2sc(-c3ccccc3)nc2-c2ccccc2)cc1OCC [Example 16, 4-(3,4-diethoxyphenyl)-N-(2,4-diphenyl-1,3-thiazol-5-yl)-4-oxobutanamide]	0.05 to 0.5 µM
CCOc1ccc(C(=O)CCC(=O)Nc2cc(-c3ccccc3)c(Cc3ccccc3)s2)cc1OCC [Example 17, N-(5-benzyl-4-phenyl-2-thienyl)-4-(3,4-diethoxyphenyl)-4-oxobutanamide]	0.01 to 0.05 µM
CCOc1ccc(C(=O)CCC(=O)Nc2cc(-c3ccccc3)cc(-c3ccccc3)n2)cc1OCC [Example 11, 4-(3,4-diethoxyphenyl)-N-(4,6-diphenylpyridin-2-yl)-4-oxobutanamide]	0.01 to 0.05 µM
CCOc1ccc(C(=O)CCC(=O)Nc2cc(-c3ccc(OCOC)cc3)c3ccccc3n2)cc1OCC [Example 15, 4-(3,4-diethoxyphenyl)-N-{4-[4-(methoxymethoxy)phenyl]quinolin-2-yl}-4-oxobutanamide]	0.05 to 0.5 µM
CCOc1ccc(C(=O)CCC(=O)Nc2cc(OCCC(C)C)cc(-c3ccccc3)n2)cc1OCC [Example 41, 4-(3,4-diethoxyphenyl)-N-(4-(3-methylbutoxy)-6-phenylpyridin-2-yl)-4-oxobutanamide]	0.05 to 0.5 µM
COc1ccc(C(=O)CCC(=O)Nc2cc(-c3ccccc3)c(Cc3ccccc3)s2)cc1OC [Example 48, N-(5-benzyl-4-phenyl-2-thienyl)-4-(3,4-dimethoxyphenyl)-4-oxobutanamide]	0.01 to 0.05 µM
CCOc1ccc(C(=O)CCC(=O)Nc2cc(-c3ccccc3)sc2-c2ccccc2)cc1OCC [Example 18, 4-(3,4-diethoxyphenyl)-N-(2,5-diphenyl-3-thienyl)-4-oxobutanamide]	0.05 to 0.5 µM
CCOc1ccc(C(=O)CCC(=O)Nc2ncc(-c3ccccc3)cc2-c2ccccc2)cc1OCC [Example 13, 4-(3,4-diethoxyphenyl)-N-(3,5-diphenylpyridin-2-yl)-4-oxobutanamide]	0.05 to 0.5 µM
CCOC(=O)/C=C/c1cc(C(=O)CCC(=O)Nc2nc(-c3ccccc3)c(Cc3ccccc3)s2)ccc1OCC [Example 30, ethyl (2E)-3-(5-{4-[(5-benzyl-4-phenyl-1,3-thiazol-2-yl)amino]-4-oxobutanoyl}-2-ethoxyphenyl)acrylate]	0.01 to 0.05 µM
CCOc1cc(C)c(C(=O)CCC(=O)Nc2cc(-c3ccccc3)c(Cc3ccccc3)s2)cc1OCC [Example 50, N-(5-benzyl-4-phenyl-2-thienyl) -4-(4,5-diethoxy-2-methylphenyl)-4-oxobutanamide]	0.01 to 0.05 µM
CCOC(=O)Cc1ccc(C(=O)CCC(=O)Nc2nc(-c3ccccc3)c(Cc3ccccc3)s2)cc1 [Example 34]	0.05 to 0.5 µM
CCOc1ccc(C(=O)NCCNC(=O)c2cc(-c3ccccc3)n(-c3ccc(OC)cc3)c2C)cc1 [Example 64, N-{2-[(4-ethoxybenzoyl)amino]ethyl}-1-(4-methoxyphenyl)-2-methyl-5-phenyl-1H-pyrrole-3-carboxamide]	0.05 to 0.5 µM

Same assay, conditions: Table 2, 25 μM dioleoylglycerol, 25 μM [14C]-Oleoyl-CoA, 32° C., 15 min, read-out: DGAT inhibitory activity (according to IC50)

SMILES	IC50
CCOc1ccc(C(=O)CCC(=O)Nc2cc(-c3ccc(OCCNC(=O)OC(C)(C)C)cc3)c3ccccc3n2)cc1OCC [Example 92, tert-butyl {2-[4-(2-{[4-(3,4-diethoxyphenyl)-4-oxobutanoyl]amino}quinolin-4-yl)phenoxy]ethyl}carbamate]	0.05 to 0.5 µM
O=C(CCC(=O)c1ccc2c(c1)CCO2)Nc1cc(-c2ccc(CO)cc2)cc(-c2ccccc2)n1 [Example 156, 4-(2,3-dihydro-1-benzofuran-5-yl)-N-{4-[4-(hydroxymethyl)phenyl]-6-phenylpyridin-2-yl}-4-oxobutanamide]	0.05 to 0.5 µM
O=C(CCC(=O)c1ccc2c(c1)CCO2)Nc1cc(-c2cccc(O)c2)cc(-c2ccccc2)n1 [Example 165, 4-(2,3-dihydro-1-benzofuran-5-yl)-N-[4-(3-hydroxyphenyl)-6-phenylpyridin-2-yl]-4-oxobutanamide]	0.01 to 0.05 µM
COC(=O)/C=C/c1ccc(-c2cc(NC(=O)CCC(=O)c3ccc4c(c3)CCO4)nc(-c3ccccc3)c2)cc1 [Example 159, methyl (2E)-3-[4-(2-{[4-(2,3-dihydro-1-benzofuran-5-yl)-4-oxobutanoyl]amino}-6-phenylpyridin-4-yl)phenyl]acrylate]	0.5 to 10 µM
CCOc1ccc(C(=O)CCC(=O)Nc2cc(-c3cccc(C#N)c3)cc(-c3ccccc3)n2)cc1OCC [Example 132, N-[4-(3-cyanophenyl)-6-phenylpyridin-2-yl]-4-(3,4-diethoxyphenyl)-4-oxobutanamide]	0.05 to 0.5 µM
O=C(CCC(=O)c1ccc2c(c1)CCO2)Nc1cc(-c2cccnc2)cc(-c2ccccc2)n1 [Example 114, 4-(2,3-dihydro-1-benzofuran-5-yl)-4-oxo-N-(6′-phenyl-3,4′-bipyridine-2′-yl)butanamide]	0.05 to 0.5 µM
CCOc1ccc(C(=O)CCC(=O)Nc2cc(-c3cccc(C(=O)O)c3)cc(-c3ccccc3)n2)cc1OCC [Example 138, 3-(2-{[4-(3,4-diethoxyphenyl)-4-oxobutanoyl]amino}-6-phenylpyridin-4-yl)benzoic acid]	0.5 to 10 µM
CCCCCC/C=C/c1cc(NC(=O)CCC(=O)c2ccc3c(c2)CCO3)nc(-c2ccccc2)c1 [Example 184, 4-(2,3-dihydro-1-benzofuran-5-yl)-N-{4-[(1E)-octa-1-en-1-yl]-6-phenylpyridin-2-yl}-4-oxobutanamide]	0.5 to 10 µM
Cc1ccc(C(=O)CCC(=O)Nc2cc(-c3ccccc3)cc(-c3ccccc3)n2)cc1C [Example 111, 4-(3,4-dimethylphenyl)-N-(4,6-diphenylpyridin-2-yl)-4-oxobutanamide]	0.5 to 10 µM
N#Cc1cccc(-c2cc(NC(=O)CCC(=O)c3ccc4c(c3)CCO4)nc(-c3ccccc3)c2)c1 [Example 163, N-[4-(3-cyanophenyl)-6-phenylpyridin-2-yl]-4-(2,3-dihydro-1-benzofuran-5-yl)-4-oxobutanamide]	0.05 to 0.5 µM
O=C(CCC(=O)c1ccc2c(c1)OCCCO2)Nc1nc(-c2ccccc2)c(Cc2ccccc2)s1 [Example 68, N-(5-benzyl-4-phenyl-1,3-thiazol-2-yl)-4-(3,4-dihydro-2H-1,5-benzodioxepin-7-yl)-4-oxobutanamide]	0.01 to 0.05 µM
CCOc1ccc(C(=O)CCC(=O)Nc2cc(-c3ccc(O)cc3)cc(-c3ccccc3)n2)cc1OCC [Example 123, 4-(3,4-diethoxyphenyl)-N-[4-(4-hydroxyphenyl)-6-phenylpyridin-2-yl]-4-oxobutanamide]	≤ 0.01 µM
Cn1cc(-c2cc(NC(=O)CCC(=O)c3ccc4c(c3)CCO4)nc(-c3ccccc3)c2)cn1 [Example 153, 4-(2,3-dihydro-1-benzofuran-5-yl)-N-[4-(1-methyl-1H-pyrazol-4-yl)-6-phenylpyridin-2-yl]-4-oxobutanamide]	0.5 to 10 µM

Test system: not given
Assay: not given
Settings: not given

SMILES	melting point
CCOc1ccc(C(=O)CCC(=O)Nc2sc(-c3ccccc3)nc2-c2ccccc2)cc1OCC [Example 16, 4-(3,4-diethoxyphenyl)-N-(2,4-diphenyl-1,3-thiazol-5-yl)-4-oxobutanamide]	139 to 140 °C
